From ChEMBL document CHEMBL3044818, “Fungicide resistance status in French populations of the wheat eyespot fungi Oculimacula acuformis and Oculimacula yallundae” (Pest Manag Sci, 2013)
Values after ≈ are worked out from the molar mass of the structure shown.

Tests used:
Oculimacula yallundae [1] = experiment: Resistance index, ratio of EC50 for sterol 14alpha-demethylation inhibitor-resistant Oculimacula yallundae TriR2 to EC50 for sterol 14alpha-demethylation inhibitor-resistant Oculimacula yallundae TriR1 by mycelial growth inhibition assay; format: functional
Oculimacula acuformis [2] = experiment: Fungicidal activity against Oculimacula acuformis assessed as inhibition of mycelial growth in presence of 5 g sodium succinate incubated at 19 degC in dark for 4 weeks; format: functional, organism-based; details: 672 h
Oculimacula yallundae [3] = experiment: Resistance index, ratio of EC50 for sterol 14alpha-demethylation inhibitor-resistant Oculimacula yallundae TriR2 to EC50 for wild type Oculimacula yallundae TriS by germ tube elongation assay; format: functional
Oculimacula yallundae [4] = experiment: Resistance index, ratio of EC50 for sterol 14alpha-demethylation inhibitor-resistant Oculimacula yallundae TriR1 to EC50 for wild type Oculimacula yallundae TriS by mycelial growth inhibition assay; format: functional
Oculimacula yallundae [5] = experiment: Resistance index, ratio of EC50 for sterol 14alpha-demethylation inhibitor-resistant Oculimacula yallundae MDR to EC50 for wild type Oculimacula yallundae TriS by mycelial growth inhibition assay; format: functional
[6] = Selectivity index, ratio of EC50 for Oculimacula acuformis to EC50 for Oculimacula yallundae by germ tube elongation inhibition assay; format: functional
[7] = Selectivity index, ratio of EC50 for Oculimacula acuformis to EC50 for Oculimacula yallundae in presence of 5 g sodium succinate by mycelial growth inhibition assay; format: functional
Oculimacula acuformis [8] = experiment: Fungicidal activity against Oculimacula acuformis assessed as inhibition of germ tube elongation incubated at 19 degC in dark for 48 hr; format: functional, organism-based
Oculimacula yallundae [9] = experiment: Resistance index, ratio of EC50 for sterol 14alpha-demethylation inhibitor-resistant Oculimacula yallundae MDR to EC50 for sterol 14alpha-demethylation inhibitor-resistant Oculimacula yallundae TriR1 by mycelial growth inhibition assay; format: functional
Oculimacula yallundae [10] = experiment: Fungicidal activity against Oculimacula yallundae assessed as inhibition of germ tube elongation incubated at 19 degC in dark for 48 hr; format: functional, organism-based
Oculimacula yallundae [11] = experiment: Resistance index, ratio of EC50 for sterol 14alpha-demethylation inhibitor-resistant Oculimacula yallundae MDR to EC50 for wild type Oculimacula yallundae TriS by germ tube elongation assay; format: functional
Oculimacula yallundae [12] = experiment: Resistance index, ratio of EC50 for sterol 14alpha-demethylation inhibitor-resistant Oculimacula yallundae TriR2 to EC50 for wild type Oculimacula yallundae TriS by mycelial growth inhibition assay; format: functional
Oculimacula acuformis [13] = experiment: Fungicidal activity against Oculimacula acuformis assessed as inhibition of mycelial growth in presence of 10 g glucose incubated at 19 degC in dark for 4 weeks; format: functional, organism-based; details: 672 h
Oculimacula yallundae [14] = experiment: Resistance index, ratio of EC50 for sterol 14alpha-demethylation inhibitor-resistant Oculimacula yallundae MDR to EC50 for sterol 14alpha-demethylation inhibitor-resistant Oculimacula yallundae TriR1 by germ tube elongation assay; format: functional
Oculimacula yallundae [15] = experiment: Resistance index, ratio of EC50 for sterol 14alpha-demethylation inhibitor-resistant Oculimacula yallundae TriR1 to EC50 for wild type Oculimacula yallundae TriS by germ tube elongation assay; format: functional
Oculimacula yallundae [16] = experiment: Fungicidal activity against Oculimacula yallundae assessed as inhibition of mycelial growth in presence of 10 g glucose incubated at 19 degC in dark for 4 weeks; format: functional, organism-based; details: 672 h
Oculimacula yallundae [17] = experiment: Resistance index, ratio of EC50 for sterol 14alpha-demethylation inhibitor-resistant Oculimacula yallundae TriR2 to EC50 for sterol 14alpha-demethylation inhibitor-resistant Oculimacula yallundae TriR1 by germ tube elongation assay; format: functional
Oculimacula yallundae [18] = experiment: Fungicidal activity against Oculimacula yallundae assessed as inhibition of mycelial growth in presence of 5 g sodium succinate incubated at 19 degC in dark for 4 weeks; format: functional, organism-based; details: 672 h
[19] = Selectivity index, ratio of EC50 for Oculimacula acuformis to EC50 for Oculimacula yallundae in presence of 10 g glucose by mycelial growth inhibition assay; format: functional
Oculimacula yallundae [20] = experiment: Resistance index, ratio of EC50 for prochloraz-resistant Oculimacula yallundae isolate ProR1 to EC50 for prochloraz-susceptible Oculimacula yallundae isolate ProS by germ tube elongation inhibition assay; format: functional
Oculimacula yallundae [21] = experiment: Resistance index, ratio of EC50 for prochloraz-resistant Oculimacula yallundae isolate ProR2 to EC50 for prochloraz-susceptible Oculimacula yallundae isolate ProS by mycelial growth inhibition assay; format: functional
Oculimacula yallundae [22] = experiment: Fungicidal activity against prochloraz-susceptible Oculimacula yallundae isolate ProS assessed as inhibition of germ tube elongation incubated at 19 degC in dark for 48 hr; format: functional, organism-based
Oculimacula yallundae [23] = experiment: Fungicidal activity against prochloraz-susceptible Oculimacula yallundae isolate ProS assessed as inhibition of mycelial growth in presence of 10 g glucose incubated at 19 degC in dark for 4 weeks; format: functional, organism-based; details: 672 h
Oculimacula yallundae [24] = experiment: Resistance index, ratio of EC50 for prochloraz-resistant Oculimacula yallundae isolate ProR2 to EC50 for prochloraz-susceptible Oculimacula yallundae isolate ProS by germ tube elongation inhibition assay; format: functional
Oculimacula yallundae [25] = experiment: Resistance index, ratio of EC50 for prochloraz-resistant Oculimacula yallundae isolate ProR1 to EC50 for prochloraz-susceptible Oculimacula yallundae isolate ProS by mycelial growth inhibition assay; format: functional

SMILES	Ratio EC50 (Oculimacula yallundae [1])	Ratio EC50 (Oculimacula yallundae [3])	Ratio EC50 (Oculimacula yallundae [4])	Ratio EC50 (Oculimacula yallundae [5])	Ratio EC50 [6]	EC50 (Oculimacula acuformis [8])	Ratio EC50 (Oculimacula yallundae [9])	EC50 (Oculimacula yallundae [10])	Ratio EC50 (Oculimacula yallundae [11])	Ratio EC50 (Oculimacula yallundae [12])	EC50 (Oculimacula acuformis [13])	Ratio EC50 (Oculimacula yallundae [14])	Ratio EC50 (Oculimacula yallundae [15])	EC50 (Oculimacula yallundae [16])	Ratio EC50 (Oculimacula yallundae [17])	Ratio EC50 [19]	Ratio EC50 (Oculimacula yallundae [20])	Ratio EC50 (Oculimacula yallundae [21])	EC50 (Oculimacula yallundae [22])	EC50 (Oculimacula yallundae [23])	further results
O=C(Nc1ccccc1-c1ccc(Cl)cc1)c1cccnc1Cl [BOSCALID]	1.3	1.3	0.8	7.5	0.8	0.025 µg/mL (≈ 0.0728 µM)	10	0.03 µg/mL (≈ 0.0874 µM)	5	1	0.3 µg/mL	4.5	1.1	0.4 µg/mL	1.2	0.08	–	–	–	–	EC50 (Oculimacula acuformis [2]): 0.3 µg/mL; Ratio EC50 [7]: 0.06; EC50 (Oculimacula yallundae [18]): 5 µg/mL
Clc1ccc(C2(Cn3cncn3)CC(Br)CO2)c(Cl)c1 (stereo not given) [BROMUCONAZOLE]	2	40	5	10	27	0.8 µg/mL (≈ 2.12 µM)	2	0.03 µg/mL (≈ 0.0796 µM)	83	10	1.5 µg/mL	2.5	33	0.2 µg/mL	1.2	8.5	0.6	0.5	0.8 µg/mL (≈ 2.12 µM)	1.5 µg/mL	Ratio EC50 (Oculimacula yallundae [24]): 1; Ratio EC50 (Oculimacula yallundae [25]): 0.3
CCCN(CCOc1c(Cl)cc(Cl)cc1Cl)C(=O)n1ccnc1 [PROCHLORAZ]	20	240	1.5	3	0.8	0.004 µg/mL (≈ 0.0106 µM)	2	0.005 µg/mL (≈ 0.0133 µM)	100	30	0.04 µg/mL	71	1.4	0.05 µg/mL	171	0.8	63	25	0.004 µg/mL (≈ 0.0106 µM)	0.04 µg/mL	Ratio EC50 (Oculimacula yallundae [24]): 75; Ratio EC50 (Oculimacula yallundae [25]): 25
OC(Cc1ccccc1Cl)(Cn1nc[nH]c1=S)C1(Cl)CC1 (stereo not given) [PROTHIOCONAZOLE]	0.8	1.3	2.5	4.5	0.8	0.06 µg/mL (≈ 0.174 µM)	1.8	0.08 µg/mL (≈ 0.232 µM)	38	2	0.5 µg/mL	30	1.3	0.4 µg/mL	1	1.3	1.2	2.4	0.06 µg/mL (≈ 0.174 µM)	0.5 µg/mL	Ratio EC50 (Oculimacula yallundae [24]): 1.5; Ratio EC50 (Oculimacula yallundae [25]): 1.6
